# Test results: patent US20240025862A1, “SUBSTITUTED N-PHENYLURACILS AND SALTS THEREOF, AND USE THEREOF AS HERBICIDAL ACTIVE SUBSTANCES” (Bayer Aktiengesellschaft, priority 2020, published 2024)
# Tests used:
# Format in all cases: in vivo
# [1] = tested on: Amaranthus retroflexus (AMARE); test: Post-emergence herbicidal action, greenhouse pot test; details: rated visually after about 3 weeks vs untreated controls, 100% = plants have died
# Summary of the method: (§1)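 Greenhouse-grown weeds in sandy loam were sprayed post-emergence at the one-leaf stage, 2–3 weeks after sowing. Compounds were formulated as WP or EC in water with 0.5% additive at 600 l/ha, at rates of 20 g/ha or less. Visual rating after about 3 weeks used a scale from 0% (like untreated control) to 100% (plants dead).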
# [2] = tested on: Abutilon theophrasti (ABUTH); test: as above; details: rated visually after about 3 weeks vs untreated controls, 100% = plants have died
# Summary of the method: as §1
# [3] = tested on: Polygonum convolvulus (POLCO); test: as above
# Summary of the method: as §1
# Viola tricolor (VIOTR) = test: as above
# Summary of the method: as §1
# [4] = tested on: Pharbitis purpurea (PHBPU); test: as above
# Summary of the method: as §1
# Veronica persica (VERPE) = test: as above
# Summary of the method: as §1
# Avena fatua (AVEFA) = test: as above; details: 20 g/ha, rated visually after about 3 weeks vs untreated controls, 100% = plants have died
# Summary of the method: as §1
# Oryza sativa (ORYSA) = test: Post-emergence crop plant compatibility, greenhouse pot test (also comparative test C); details: for Post-emergence action against ORYSA (crop plant compatibility): vs untreated controls
# Summary of the method: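 Rice and other crops sprayed post-emergence at one-leaf stage (2–3 weeks after sowing) with WP or EC formulations plus 0.5% additive at 600 l/ha water. Visual rating about 3 weeks later versus untreated controls (100% = dead, 0% = like control); suffixes a–c denote different doses.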
# [5] = tested on: Matricaria inodora (MATIN); test: Post-emergence herbicidal action, greenhouse pot test (also comparative test C)
# Summary of the method: (§2)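 Green parts of one-leaf-stage plants are sprayed at 600 l/ha with formulated compound plus 0.5% additive, then kept under optimum greenhouse conditions for about 3 weeks. Damage is scored visually, where 100% means dead plants and 0% means no difference from controls.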
# Setaria viridis (SETVI) = test: as above; details: for Post-emergence action against SETVI: 20 g/ha
# Summary of the method: as §2
# [6] = tested on: Echinochloa crus-galli (ECHCG); test: as above
# Summary of the method: as §2
# [7] = tested on: Alopecurus myosuroides (ALOMY); test: as above; details: rated visually after about 3 weeks vs untreated controls, 100% = plants have died
# Summary of the method: as §2
# [8] = tested on: Triticum aestivum (TRZAS); test: Post-emergence crop plant compatibility, greenhouse pot test; details: vs untreated controls
# Summary of the method: (§3)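 Seeds are sown in sandy loam and grown under controlled greenhouse conditions. At the one-leaf stage (2–3 weeks), foliage is sprayed with the formulated compound in water containing 0.5% additive at 600 l/ha. About 3 weeks later, injury is rated visually in % against untreated plants.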
# Zea mays (ZEAMX) = test: as above; details: 1.25 g/ha, vs untreated controls
# Summary of the method: as §3
SMILES,Post-emergence action at 1.25 g/ha against AMARE in % [1] [%],Post-emergence action at 5 g/ha against AMARE in % [1] [%],Post-emergence action at 20 g/ha against AMARE in % [1] [%],Post-emergence action at 1.25 g/ha against ABUTH in % [2] [%],Post-emergence action at 5 g/ha against ABUTH in % [2] [%],Post-emergence action at 20 g/ha against ABUTH in % [2] [%],Post-emergence action against POLCO in % ([3]; dosage 20 g/ha) [%],Post-emergence action against VIOTR (Viola tricolor (VIOTR); 1.25 g/ha) [%],Post-emergence action against VIOTR (Viola tricolor (VIOTR); 5 g/ha) [%],Post-emergence action against VIOTR (Viola tricolor (VIOTR); 20 g/ha) [%],Post-emergence action against PHBPU in % ([4]; dosage 1.25 g/ha) [%],Post-emergence action against PHBPU in % ([4]; dosage 5 g/ha) [%],Post-emergence action against PHBPU in % ([4]; dosage 20 g/ha) [%],Post-emergence action against VERPE (Veronica persica (VERPE); 5 g/ha) [%],Post-emergence action against VERPE (Veronica persica (VERPE); 20 g/ha) [%],Post-emergence action at 20 g/ha against AVEFA in % (Avena fatua (AVEFA)) [%],Post-emergence action against ORYSA (crop plant compatibility) (Oryza sativa (ORYSA); 1.25 g/ha) [%],Post-emergence action against MATIN in % ([5]; dosage 5 g/ha) [%],Post-emergence action against MATIN in % ([5]; dosage 20 g/ha) [%],Post-emergence action against SETVI (Setaria viridis (SETVI)) [%],further results
Cn1c(C(F)(F)F)cc(=O)n(-c2cc(Oc3ccccc3OCC(=O)OCCOC(F)(F)F)c([N+](=O)[O-])cc2F)c1=O [I.6-41],100,100,100,100,100,100,100,100,100,100,100,100,100,100,100,80,10,80,100,100,"Post-emergence action against ORYSA (crop plant compatibility) (Oryza sativa (ORYSA); 5 g/ha): 10%; Post-emergence action against ORYSA in % (Oryza sativa (ORYSA); 20 g/ha, crop plant compatibility): 20%; Post-emergence action against SETVI in % (Setaria viridis (SETVI); dosage 1.25 g/ha): 100%; Post-emergence action against SETVI in % (Setaria viridis (SETVI); dosage 5 g/ha): 100%; Post-emergence action against ECHCG in % ([6]; dosage 5 g/ha): 100%; Post-emergence action against ECHCG in % ([6]; dosage 20 g/ha): 100%; Post-emergence action at 5 g/ha against ALOMY in % [7]: 80%; Post-emergence action at 20 g/ha against ALOMY in % [7]: 100%; Post-emergence action against TRZAS (crop plant compatibility) ([8]; 1.25 g/ha): 10%; Post-emergence action against TRZAS (crop plant compatibility) ([8]; 5 g/ha): 20%; Post-emergence action against TRZAS (crop plant compatibility) ([8]; 20 g/ha): 20%; Post-emergence action against ZEAMX (crop plant compatibility) (Zea mays (ZEAMX)): 20%"
Cn1c(C(F)(F)F)cc(=O)n(-c2cc(Oc3ccccc3OCC(=O)OCCOC(F)(F)F)c(Br)cc2F)c1=O [I.8-41],100,100,100,80,100,100,100,100,100,100,100,100,100,100,100,80,0,90,100,100,Post-emergence action against POLCO in % ([3]; dosage 1.25 g/ha): 80%; Post-emergence action against POLCO in % ([3]; dosage 5 g/ha): 90%; Post-emergence action against ORYSA (crop plant compatibility) (Oryza sativa (ORYSA); 5 g/ha): 20%; Post-emergence action against MATIN in % ([5]; dosage 1.25 g/ha): 90%; Post-emergence action against SETVI in % (Setaria viridis (SETVI); dosage 1.25 g/ha): 100%; Post-emergence action against SETVI in % (Setaria viridis (SETVI); dosage 5 g/ha): 100%; Post-emergence action against ECHCG in % ([6]; dosage 5 g/ha): 90%; Post-emergence action against ECHCG in % ([6]; dosage 20 g/ha): 100%; Post-emergence action at 5 g/ha against ALOMY in % [7]: 80%; Post-emergence action at 20 g/ha against ALOMY in % [7]: 100%; Post-emergence action against TRZAS (crop plant compatibility) ([8]; 1.25 g/ha): 0%; Post-emergence action against TRZAS (crop plant compatibility) ([8]; 5 g/ha): 20%; Post-emergence action against ZEAMX (crop plant compatibility) (Zea mays (ZEAMX)): 20%
Cn1c(C(F)(F)F)cc(=O)n(-c2cc(Oc3ccccc3OCC(=O)OCc3cccnn3)c(Cl)cc2F)c1=O [I.7-291],100,100,100,100,100,100,100,100,100,100,100,100,100,100,100,100,20,100,100,100,Post-emergence action against SETVI in % (Setaria viridis (SETVI); dosage 1.25 g/ha): 100%; Post-emergence action against SETVI in % (Setaria viridis (SETVI); dosage 5 g/ha): 100%; Post-emergence action against ECHCG in % ([6]; dosage 5 g/ha): 100%; Post-emergence action against ECHCG in % ([6]; dosage 20 g/ha): 100%; Post-emergence action at 5 g/ha against ALOMY in % [7]: 80%; Post-emergence action at 20 g/ha against ALOMY in % [7]: 100%; Post-emergence action against TRZAS (crop plant compatibility) ([8]; 1.25 g/ha): 0%; Post-emergence action against TRZAS (crop plant compatibility) ([8]; 5 g/ha): 0%; Post-emergence action against ZEAMX (crop plant compatibility) (Zea mays (ZEAMX)): 10%
